Laboratory results: PubChem BioAssay AID1963861 (Molecular Pharmacology Branch, DTP, NCI, 2024)

System: 885724-159-R-J1-PDC KRAS PDC multicell spheroid viability
Experiment: Anticancer human tumor 885724-159-R-J1-PDC patient-derived pancreatic adenocarcinoma cell line growth inhibition [KRAS2]
Settings: for IC50: curve of first compound; for viability, T/C: stronger effect = lower value
Description: Multicellular complex tumor spheroid response to RAS pathway inhibitors in combination with a targeted agents in patient-derived cell lines with oncogenic KRAS variants from multiple cancer types
A high-throughput screen of multi-cell type tumor spheroids was designed to identify active combinations of targeted small molecules and KRAS pathway inhibitors. Complex spheroids include a stromal component modeled by human endothelial cells (HUVEC) and fibroblasts modeled by human mesenchymal stem cells (MSCs). The concentration ranges selected for each drug and investigational agent were based upon clinically achievable concentrations if the clinical Cmax of the agent was known.
Compounds. The drugs and investigational agents: BI-3406 (NSC825286), BAY-293 (NSC824723), batoprotafib (TNO155; NSC825523), sotorasib (AMG 510; NSC818433), MRTX1257 (NSC819558), elimusertib (BAY 1895344; NSC800525), molibresib (GSK525762; NSC774829), temuterkib (LY3214996; NSC803410), venetoclax (NSC766270), alisertib (NSC759677), olaparib (NSC753686), talazoparib (NSC767125), erdafitinib (NSC781556), ipatasertib (NSC767898), cabozantinib (NSC761068), nintedanib (NSC756659), abemaciclib (NSC768073), docetaxel (NSC628503), trametinib (NSC758246), and sapanisertib (NSC764658) were obtained from the National Cancer Institute (NCI) Developmental Therapeutics Program Chemical Repository. The FDA-approved anticancer drug set is available from the Developmental Therapeutics Program. […] The stock solutions were prepared in dimethyl sulfoxide (DMSO, Sigma-Aldrich, St. Louis, MO, cat. D2650) at 800-fold the tested concentration and stored at -70 degrees C prior to their use. All drugs and investigational agents were tested over a range starting from a high concentration at or near the clinical Cmax and decreasing in half-log increments. If the clinical Cmax for an agent had not been determined, the highest concentration tested was 10 microM.
Cell Culture. All cells were maintained in an incubator at 37 degrees C and 5% CO2 with 95% humidity. The PDC lines were cultured according to standard operating procedures established by the NCI PDMR (https://pdmr.cancer.gov/sops/default.htm). Briefly, all PDCs were thawed and cultured in Matrigel-coated flasks prepared with a working solution of 1X Ham's F-12 nutrient mix, without supplementation (Invitrogen, Waltham, MA, cat. 11765054), 100 U/mL penicillin-streptomycin (Invitrogen, cat. 15140122), and 2.5% Matrigel (Corning Inc., Corning, NY, cat. 354248) for the first three passages. All PDCs were cultured in complete DMEM/F-12 media containing advanced DMEM/F-12 (Invitrogen, cat. 12634028), 4.9% defined fetal bovine serum, heat inactivated (HyClone Laboratories Inc., Logan, UT, cat. SH30070.03HI), 389 ng/mL hydrocortisone (Sigma-Aldrich, cat. H4001), 9.7 ng/mL human EGF recombinant protein (Invitrogen, cat. PHG0313), 23.4 microg/mL adenine (Sigma-Aldrich, cat. A2786), 97.3 U/mL penicillin-streptomycin (Invitrogen, cat. 15140122), 1.9 mM L-glutamine (Invitrogen, cat. 25030081), and 9.7 microM Y-27632 dihydrochloride (Tocris Bioscience, Bristol, United Kingdom, cat. 1254). The PDCs were cultured in complete DMEM/F12 media without 9.7 microM Y-27632 dihydrochloride for at least two passages prior to the screen. The established cell line HOP-62 was cultured in RPMI 1640 medium, HEPES (Invitrogen, cat. 22400105) with 10% defined fetal bovine serum (HyClone Laboratories Inc., cat. SH30070.03) and 2 mM L-glutamine (Invitrogen, cat. 25030081). The pooled donor HUVEC were cultured in endothelial cell growth medium 2 (PromoCell, Heidelberg, Germany, cat. C-22011) and the hMSC were cultured in mesenchymal stem cell growth medium 2 (PromoCell, cat. C-28009). For all experiments, HUVEC and hMSC were used at passages </=5, while the malignant cell lines were used at passages </=15. […]

[1] = second compound 0.1 µM, first compound 0.0316 µM
[2] = second compound 0.316 µM, first compound 0.0316 µM
[3] = second compound 1 µM, first compound 0.0316 µM
[4] = second compound 3.16 µM, first compound 0.0316 µM
[5] = second compound 10 µM, first compound 0.0316 µM
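Also: spheroids exposed to agents for 7 days before readout.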

CC(=O)Nc1cccc(-n2c(=O)n(C3CC3)c(=O)c3c(Nc4ccc(I)cc4F)n(C)c(=O)c(C)c32)c1 + C=CC(=O)N1CCN(c2nc(=O)n(-c3c(C)ccnc3C(C)C)c3nc(-c4c(O)cccc4F)c(F)cc23)C(C)C1
IC50 (second compound 0.1 µM): 1.74 nM | IC50 (second compound 0.316 µM): 1.57 nM | IC50 (second compound 1 µM): 2 nM | IC50 (second compound 3.16 µM): 1.36 nM | IC50 (second compound 10 µM): 0.33 nM | viability, T/C (second compound 0.1 µM, first compound 0.0001 µM): 102% | viability, T/C (second compound 0.1 µM, first compound 0.000316 µM): 81.2% | viability, T/C (second compound 0.1 µM, first compound 0.001 µM): 55.9% | viability, T/C (second compound 0.1 µM, first compound 0.00316 µM): 42.2% | viability, T/C (second compound 0.1 µM, first compound 0.01 µM): 30% | viability, T/C [1]: 21.3% | viability, T/C (second compound 0.316 µM, first compound 0.0001 µM): 114% | viability, T/C (second compound 0.316 µM, first compound 0.000316 µM): 83% | viability, T/C (second compound 0.316 µM, first compound 0.001 µM): 54.6% | viability, T/C (second compound 0.316 µM, first compound 0.00316 µM): 40.1% | viability, T/C (second compound 0.316 µM, first compound 0.01 µM): 30.6% | viability, T/C [2]: 21.4% | viability, T/C (second compound 1 µM, first compound 0.0001 µM): 92.5% | viability, T/C (second compound 1 µM, first compound 0.000316 µM): 84.3% | viability, T/C (second compound 1 µM, first compound 0.001 µM): 61.2% | viability, T/C (second compound 1 µM, first compound 0.00316 µM): 41.7% | viability, T/C (second compound 1 µM, first compound 0.01 µM): 31.9% | viability, T/C [3]: 23.8% | viability, T/C (second compound 3.16 µM, first compound 0.0001 µM): 84.6% | viability, T/C (second compound 3.16 µM, first compound 0.000316 µM): 81.5% | viability, T/C (second compound 3.16 µM, first compound 0.001 µM): 52.4% | viability, T/C (second compound 3.16 µM, first compound 0.00316 µM): 38.7% | viability, T/C (second compound 3.16 µM, first compound 0.01 µM): 30.1% | viability, T/C [4]: 26.6% | viability, T/C (second compound 10 µM, first compound 0.0001 µM): 61.6% | viability, T/C (second compound 10 µM, first compound 0.000316 µM): 51.3% | viability, T/C (second compound 10 µM, first compound 0.001 µM): 29.3% | viability, T/C (second compound 10 µM, first compound 0.00316 µM): 26.4% | viability, T/C (second compound 10 µM, first compound 0.01 µM): 23.2% | viability, T/C [5]: 18.6%

COc1cc(Nc2ncc3c(n2)-c2ccc(Cl)cc2C(c2c(F)cccc2OC)=NC3)ccc1C(=O)O + C=CC(=O)N1CCN(c2nc(=O)n(-c3c(C)ccnc3C(C)C)c3nc(-c4c(O)cccc4F)c(F)cc23)C(C)C1
IC50 (second compound 0.1 µM): > 10000 nM | IC50 (second compound 0.316 µM): > 10000 nM | IC50 (second compound 1 µM): > 10000 nM | IC50 (second compound 3.16 µM): > 10000 nM | IC50 (second compound 10 µM): > 10000 nM | viability, T/C [1]: 99.7% | viability, T/C (second compound 0.1 µM, first compound 0.1 µM): 100% | viability, T/C (second compound 0.1 µM, first compound 0.316 µM): 95.9% | viability, T/C (second compound 0.1 µM, first compound 1 µM): 92.7% | viability, T/C (second compound 0.1 µM, first compound 3.16 µM): 100% | viability, T/C (second compound 0.1 µM, first compound 10 µM): 107% | viability, T/C [2]: 94.5% | viability, T/C (second compound 0.316 µM, first compound 0.1 µM): 92.1% | viability, T/C (second compound 0.316 µM, first compound 0.316 µM): 92.2% | viability, T/C (second compound 0.316 µM, first compound 1 µM): 96.8% | viability, T/C (second compound 0.316 µM, first compound 3.16 µM): 98.7% | viability, T/C (second compound 0.316 µM, first compound 10 µM): 106% | viability, T/C [3]: 97.8% | viability, T/C (second compound 1 µM, first compound 0.1 µM): 93.5% | viability, T/C (second compound 1 µM, first compound 0.316 µM): 92.2% | viability, T/C (second compound 1 µM, first compound 1 µM): 93.9% | viability, T/C (second compound 1 µM, first compound 3.16 µM): 85.6% | viability, T/C (second compound 1 µM, first compound 10 µM): 99.7% | viability, T/C [4]: 80.9% | viability, T/C (second compound 3.16 µM, first compound 0.1 µM): 85.5% | viability, T/C (second compound 3.16 µM, first compound 0.316 µM): 86.1% | viability, T/C (second compound 3.16 µM, first compound 1 µM): 90.6% | viability, T/C (second compound 3.16 µM, first compound 3.16 µM): 90.9% | viability, T/C (second compound 3.16 µM, first compound 10 µM): 87.4% | viability, T/C [5]: 65.4% | viability, T/C (second compound 10 µM, first compound 0.1 µM): 67.4% | viability, T/C (second compound 10 µM, first compound 0.316 µM): 63.6% | viability, T/C (second compound 10 µM, first compound 1 µM): 58.2% | viability, T/C (second compound 10 µM, first compound 3.16 µM): 56.5% | viability, T/C (second compound 10 µM, first compound 10 µM): 49.8%
